Key:
[1] = tested on: known non-responder to creatine supplementation; assay: Creatine non-responder RJ: two-week strength training program, total body weight and total strength; format: in vivo, human; details: subject one
Protocol: A. patient one, 198 cm tall, a known non-responder to creatine supplementation, followed a two-week strength training program while testing whether supplementation with PA-enriched-lecithin improves creatine response. Total starting total body weight and strength were measured on day one, followed by the training program, consisting of concentric and eccentric isotonic lifting exercises that worked the upper and lower body muscle groups. Either free weights or weight machines were used once or twice weekly. Strength training was performed three times per week with at least one day of rest between sessions, which alternated between lower and upper body exercises. During the two-week period, a total of six training sessions (three upper and three lower) were performed. Each exercise included two sets of ten repetitions at 30% and 60% 1RM, followed by two sets of 3 to 5 repetitions at 90% 1RM.
The lower body exercise included seven different exercises: seated leg press, leg curls, standing calf raises, leg extensions, inclined leg lift, inverted situps (back extension) and 45° inclined situps. The upper body exercise consisted of seven different exercises: bench press, latissimus pulldown, triceps pulldown, inclined dumbbell curls, seated preacher curls, seated rows, and CyBec Pec Fly.
Total upper and lower body weight lifted were calculated as the average weight lifted during the last three sets multiplied by the average repetition in each set. Total strength was determined as the combined lower and upper total weight lifted. Total body weight was determined after day 8 and day 15. Strength was measured on days 1 and 15.
A four-week rest period followed the first two-week training program. The same program was repeated twice, the control was supplementation of creatine monohydrate (Creapure, Alzchem, Germany) 4 times 5 grams per day for five days of loading, followed by nine days of five grams creatine monohydrate. During the second program, creatine monohydrate was given as for the control program with the addition of PA-enriched lecithin (Chemi Nutra, White Bear Lake, Minn.) which was about 50% PA.

[2] = tested on: known non-responder to creatine supplementation; assay: Creatine non-responder MP: three-week strength training program, total body weight and total strength; format: in vivo, human; details: subject two
Protocol: B. patient two, 185 cm tall, also a known non-responder to creatine supplementation, followed a three-week strength training program while testing whether supplementation with PA-enriched-lecithin improves creatine response. Total starting total body weight and strength were measured on day one, followed by the training program, consisting of concentric and eccentric isotonic lifting exercises that worked the upper and lower body muscle groups with either free weights or weight machines used once or twice weekly. Strength training was performed three times per week with at least one day of rest between sessions, which alternated between lower and upper body exercises. During the three-week period, a total of […] were performed. Each exercise included two sets of ten repetitions at 40% and 65% 1RM, followed by two sets of 3 to 5 repetitions at 90% 1RM.
The lower body exercise included seven different exercises: seated leg press, leg curls, standing calf raises, leg extension, inclined leg lift, inverted situps (back extension) and 45° inclined situps. The upper body exercise consisted of seven different exercises: bench press, latissimus pulldown, triceps pulldown, inclined dumbbell curls, seated preacher curls, seated rows, and CyBec Pec Fly. Total upper and lower body weight lifted were calculated as the average weight lifted during the last three sets multiplied by the average repetition in each set. Total strength was determined as the combined lower and upper total weight lifted. […] Strength was measured on days 1 and 22.
A four-week rest period followed the first three-week training program. The same program was repeated twice, the control was supplemented with creatine monohydrate (Creapure®, Alzchem, Germany) 5 grams per day of five grams creatine monohydrate for 21 days. During the second program, creatine monohydrate was given as for the control program with the addition of 1 gram per day PA-enriched lecithin (Chemi Nutra, White Bear Lake, Minn.) which was about 50% PA.

With `CN(CC(=O)O)C(=N)N.O` [Creatine Supplement, creatine monohydrate] the “weight, day 1” value ([1]; day 1 of two-week program) was 88.8 kg, the total strength increase ([1]; day 1 vs day 15) was 5% and the “weight, day 8” value ([1]; day 8 of two-week program) was 88.3 kg. The “weight, day 15” value ([1]; day 15 of two-week program) was 88.0 kg, the “effect on body weight” value ([1]; two-week program) was “not effective in preventing a slight weight loss” and the “weight, day 1” value ([2]; day 1 of three-week program) was 81.9 kg. The total strength increase ([2]; day 1 vs day 22) was 5%, the “weight, day 10” value ([2]; day 10 of three-week program) was 81.5 kg and the “weight, day 22” value ([2]; day 22 of three-week program) was 81.2 kg. The “effect on body weight” value ([2]; three-week program) was “not effective in preventing a slight weight loss”.

From patent US20120141448A1, “Method for increasing muscle mass and strength” (priority 2010, published 2012)
